# Measured values published in patent publication US20030190368A1, “METHODS OF DIAGNOSIS AND TRIAGE USING CELL ACTIVATION MEASURES” (priority 1998, published 2003).
# Tests used:
# Type in all cases: cell-based
# human neutrophils [1] = test: Lucigenin-enhanced superoxide chemiluminescence of human plasma / isolated neutrophils; details: for superoxide chemiluminescence of isolated neutrophils alone (no plasma): neutrophils in PBS, fMLP 10^-6 M, PAF 10^-6, homogenate 1 ml; for chemiluminescence in cell-free plasma: plasma filtered 1 um; for plasma chemiluminescence activation by pancreatic proteases: trypsin 1000 U/ml, chymotrypsin 100 U/ml, 155×10^3 neutrophils/ml plasma
# Method: Human blood was collected in heparinized Vacutainer tubes (10 ml) and centrifuged at 500 G for 10 minutes. Plasma was collected and 3 ml were mixed with lucigenin (N,N′-dimethyl-9,9′-bisacridinium […]) (Sigma Chemical CO., St. Louis, Mo.) (1 ml of a 1 mM stock solution in deinozed water, final concentration […], near optimal concentration as determined by Ohoi, et al (26)) for each measurement in small petri dishes (60 mm diameter). In later modifications of the test, a 25 mm diameter polyurethane disk was placed inside the petri dishes to reduce the vessel diameter, and subsequently, the reagent requirements to 1 ml plasma mixed with 0.75 ml lucigenin (1 mM stock solution) and only 100 μl of an activator. […] Six Vacutainer tubes were normally collected from healthy volunteers. This volume gives approximately 8 measurements using the original configuration (3 ml plasma/measurement) and up to 25 measurements with the modified system (1 ml/measurement). When measuring whole blood samples, 3 ml of whole blood were subsitituted for 3 ml of plasma.
# A standard neutrophil isolation procedure was used as described in Example 2 or pseudopod formation tests. Human blood from healthy volunteers (approximately 60 ml) was collected in heparinized Vacutainer tubes and transferred to a 60 ml syringe where it was sedimented on ice for 40-60 minutes. It is important that heparin and not EDTA ([…]) be used as an antocoagulant, since the calcium-chelating properties of EDTA can suppress neutrophil activation. The neutrophil-rich plasma layer was collected and layered onto 3.5 ml Histopaque (Sigma Diagnostics, St. Louis, Mo.) in 12 ml polypropylene centrifuge tubes (17×100 mm, Falcon, Shrewsbury, Mass.) and centrifuged at 600 G for 20 minutes. The sedimented neutrophils and red blood cells were then gently resuspended in 2 ml PBS (phosphate buffer solution). The resuspeneded cells were carefully layered onto 2.5 ml of a 55% isotonic Percoll solution (Sigma Diagnostics, St. Louis, Mo.) and 2.5 ml of a 74% isotonic Percoll solution in deionized water. This suspension was centrifuged at 600 G for 15 minutes and the middle granulyte layer was removed and resuspended in PBS to achieve a concentration of 10^6 neutrophils/ml.
# For standard plasma measurements (e.g., low molecular weight fractions and whole pancreatic homogenates) human blood from healthy volunteers (approximately 60 ml) was collected in heparinized Vacutainer tubes and centrifuged for 10 minutes at 500 g. The plasma layer, including the buffy coat was carefully decanted using a steril transfer pipette. This fraction was then warmed to room temperature and plasma measurements were obtained. Plasma was diluted with sterile saline to achieve a plasma neutrophil concentration of 120×10^3 neutrophil/ml.
# For experiments with different plasma concentrations versus neotrophil activators, measurements were made using isolated neutrophils, isolated neutrophils in 10% and 30% autologous plasma, and neutrophil-free plasma (filtered with 1 um filter and verified by cell count).
# Cell-free plasma was obtained by filtering sedimented plasma through a 1 um filter (Whatman 6780-2510, Swedesboro, N.J.). The filtered plasma was visually verified to be cell free by placing an aliquot on a microscope slide and examining in detail at 400×. For experiments with different percentages of added plasma, 5 ml total volumes were made consisting of 1 ml lucigenin (1 mM), 1 ml activator, and either 3 ml suspended neutrophils, 2 ml suspended neutrophils plus 1 ml cell-free plasma mixed in PBS necessary for either 10% or 30% total plasma concentration, or 3 ml cell-free plasma. Activators (1 ml) were added via an injection port to the mixture at time t=0 seconds. […]
# [2] = tested on: isolated naive human neutrophils; test: Pseudopod formation test: protease inhibitors against pancreatic homogenate-induced neutrophil activation; details: for percent neutrophil pseudopod formation (activation) by rat pancreatic homogenate in presence of protease inhibitor: neutrophils preincubated 10 min with inhibitor (PMSF 1 mM; Complete 1 tablet/20 ml; Benzamidine 1150 μM; Futhan 0.1 mg/ml; aprotinin 20 μM), then homogenate 10 min, homogenate alone 85.1±11.5%
# Method: (§1) For the pseudopod assay, venous blood is collected in heparinized tubes from healthy human volunteers and put on ice. It is important that heparin and not EDTA ([…]) be used as an anticoagulant, as the calcium-chelating properties of EDTA can affect neutrophil activation. […] Other chemicals for the Krebs-Henseleit buffer are from Fisher Scientific, Fair Lawn, N.J. The resuspended cells are then gently layered onto 2.5 ml of a 55% isotonic Percoll (Sigmal Chemical Company) solution and 2.5 ml of a 74% isotonic Percoll solution in deionized water. The suspension is centrifuged for 15 minutes at 600 G and the middle granulocyte layer is removed and resuspended in PBS to achieve a concentration of 10^6 neutrophils/ml. 100 μl aliquots of suspended neutrophils are added to 100 μl of test plasma or activating agent. This mixture is mixed and then incubated for 10 minutes at 27° C. After incubation 100 μl of 3% glutaraldehyde (Fisher Scientific) is added to stop the reaction. 100 μl of crystal violet in phosphate (pH: 7.4) buffer is then added to stain leukocyte nuclei on wet mount preparations. Freely suspended neutrophils with pseudopodia are identified by their segmented nuclei and the presence of cytoplasmic granules. One hundred neutrophils are counted. Cells with pseudopod projection greater than about 1 um are considered positive.
# Rat homogenate was collected as described in detail in Example 5. Briefly, male Wistar rats (250-350 gm) were housed in a controlled environment and maintained on a standard pellet diet for at least three days before initiation of experimental procedures. Animals were cannulated via the femoral arteries and vein under general anesthesia using pentobarbital (50 mg/kg i.m.). The rats were exsanguinated and the heart, liver, spleen, small intestine, and pancreas removed. The organs were immediately washed and cleaned in cold 0.25 M sucrose solution. Then, the cleaned organs were vigorously homogenized in Krebs-Henseleit solution ([…]). Aliquots were filtered by centrifugation at 500 G for 10 min. Pancreatic homogenates were incubated for 2.5 hours at 38° C., stirred frequently. Incubated pancreatic homogenate as well as controls were tested against naive human donor neutrophils for pseudopod formation as described in Example 2.
# To determine whether or not neutrophil activation by pancreatic homogenate is protease dependent, the pseudopod formation test was repeated by preincubation of isolated neutrophils with various protease inhibitors (50 μl) for 10 minutes followed by addition of pancreas homogenate (50 μl) and further incubation for 10 minutes. […] All protease inhibitors were the gift of Dr. Tony E. Hugli of The Scripps Clinic and Research Institute, with the exception of Complete™, an all-purpose protease inhibitor purchased from Boehringer Mannheim, Indianapolis, Ind. One of the components of Complete™ is EDTA (ethylenediaminetetra-acetic acid), a standard anti-coagulant and divalent cation chelator.
# To determine whether the protease inhibitors were acting on the pancreatic homogenate or the neutrophils themselves, a new set of neutrophil pseudopod experiments was carried out. […] Appropriate controls were recorded as well as a positive control (10^−7 M fMLP) to determine the washed cells' ability to respond to stimuli. Formyl-methionyl-leucyl-phenylalanine (fMLP) was obtained from Sigma Chemical Company, St. Louis, Mo.
# human neutrophils [3] = test: Neutrophil PAF inhibition experiments (pseudopod formation)
# [4] = tested on: isolated naive human neutrophils; test: Pseudopod formation test: neutrophil activation by organ homogenates, fractions and proteases; details: for percent pseudopod formation, control solution incubated with the additive alone (no organ homogenate): Krebs-Henseleit control incubated with additive at the same concentration, control activation 10.5±2.5%; for direct neutrophil activation by proteases / zymogen fragments (in words): pseudopod formation
# Method: as §1
# The organ homogenization procedure was similar to the method of Lefer (Glenn et al. (1971) Circ Res 29:338-349, Lefer (1973) Am J. Physiol 224:824-831). Male Wistar rats (250-350 gm) were housed in a controlled environment and maintained on standard pellet diet for at least three days before initiation of experimental procedures. Animals were cannulated via the femoral arteries and vein under general anesthesia using phenobarbital (50 mg/kg i.m.) No heparin was injected other than that needed to ensure open catheter lines (10 U/ml plasma-Lyte). A central incision was made over the abdomen. The rats were exsanguinated and the heart, liver, spleen, small intestine, and pancreas were removed. In two animals a kidney and adrenal gland were removed as well. They were immediately washed and cleaned in cold 0.25 M sucrose solution. The cleaned organs were vigorously homogenized in Krebs-Henseleit solution (1:3 w/v). Homogenate was then further diluted in Krebs-Henseleit solution (1:2 v/v). Aliquots were filtered by centrifugation at 500 G for 10 min and a sample aliquot was stored at 4° C. until assayed. The other fraction was incubated for 2.5 hours at 38° C. with mild stirring and stored at 4° C. until assayed. Incubation of tissue homogenates for this time period at a moderate temperature enhances any enzymatic activity that may be necessary in order to produce a neutrophil activation product. The incubated and non-incubated organ homogenates as well as controls were tested against naive human donor leukocytes for pseudopod formation tests and on whole rat donor blood for the NBT assay. Pseudopod determination was carried out as described in Example 2 using isolated neutrophils in D-PAS combined with homogenate in a 4:1 ratio. Nitroblue tetrazolium reduction by leukocytes due to superoxide in rat homogenate assays was also tested using the NBT procedure described in Example 2, with the application of 25 μl of homogenate to donor blood. The NBT assays for porcine homogenate activity were measured using the slightly modified NBT protocol with the crystal violet stain, also detailed in Example 2. […]
molecule,measurement,setting,value
1-O-alkyl-2-acetyl-sn-glycero-3-phosphocholine [PAF],superoxide chemiluminescence of isolated neutrophils alone (no plasma),human neutrophils [1],likewise unreactive
same,chemiluminescence in cell-free plasma,human neutrophils [1],unreactive
N=C(N)c1ccccc1 [Benzamidine],percent neutrophil pseudopod formation (activation) by rat pancreatic homogenate in presence of protease inhibitor,[2],41.5±24.6%
"O=S(=O)(F)Cc1ccccc1 [PMSF, Phenylmethylsulfonyl fluoride]",percent neutrophil pseudopod formation (activation) by rat pancreatic homogenate in presence of protease inhibitor,[2],40.8±12.9%
Cc1nnc2n1-c1sc3c(c1C(c1ccccc1Cl)=NC2)CC(C(=O)N1CCOCC1)C3 (centres unmarked) [WEB 2170],reduction of neutrophil activation by pancreatic or trypsin-incubated homogenates,"human neutrophils [3]; 5 μM, 50 μM, 500 μM",largely ineffective
"CSCC[C@H](NC=O)C(=O)N[C@@H](CC(C)C)C(=O)N[C@@H](Cc1ccccc1)C(=O)O [fMLP, Formyl-methionyl-leucyl-phenylalanine]",superoxide chemiluminescence of isolated neutrophils alone (no plasma),human neutrophils [1],not particularly reactive
same,chemiluminescence in cell-free plasma,human neutrophils [1],unreactive
same,percent activation of twice-washed neutrophils by activator,"[2]; no inhibitor, pancreatic homogenate 50 μl (Control group) or fMLP 10^-7 M (positive control)",74%
"Phospholipase A2: from bovine pancreas, also degrades PAF",intrinsic effect on neutrophils,"human neutrophils [3]; 1, 10, 20 U/ml",neutrophil stimulatory properties
aprotinin,percent neutrophil pseudopod formation (activation) by rat pancreatic homogenate in presence of protease inhibitor,[2],51±17.2%
chymotrypsin,"percent pseudopod formation, control solution incubated with the additive alone (no organ homogenate)",[4],42%
same,direct neutrophil activation by proteases / zymogen fragments (in words),[4],did not result in neutrophil activation
same,plasma chemiluminescence activation by pancreatic proteases,human neutrophils [1],little activation
"trypsin: serine protease, Type 11-S from porcine pancreas (protein, UniProt P00761 9-231, looked up) Trypsin: IVGGYTCAANSIPYQVSLNSGSHFCGGSLINSQWVVSAAHCYKSRIQVRLGEHNIDVLEGNEQFINAAKIITHPNFNGNTLDNDIMLIKLSSPATLNSRVATVSLPRSCAAAGTECLISGWGNTKSSGSSYPSLLQCLKAPVLSDSSCKSSYPGQITGNMICVGFLEGGKDSCQGDSGGPVVCNGQLQGIVSWGYGCAQKNKPGVYTKVCNYVNWIQQTIAAN","percent pseudopod formation, control solution incubated with the additive alone (no organ homogenate)",[4],8.5±0.8%
same,direct neutrophil activation by proteases / zymogen fragments (in words),[4],did not result in neutrophil activation
same,plasma chemiluminescence activation by pancreatic proteases,human neutrophils [1],little activation
"trypsinogen: trypsin precursor from bovine pancreas (protein, UniProt P00760 18-246, looked up, pro-form, trypsin precursor from bovine pancreas) pro-form: VDDDDKIVGGYTCGANTVPYQVSLNSGYHFCGGSLINSQWVVSAAHCYKSGIQVRLGEDNINVVEGNEQFISASKSIVHPSYNSNTLNNDIMLIKLKSAASLNSRVASISLPTSCASAGTQCLISGWGNTKSSGTSYPDVLKCLKAPILSDSSCKSAYPGQITSNMFCAGYLEGGKDSCQGDSGGPVVCSGKLQGIVSWGSGCAQKNKPGVYTKVCNYVSWIKQTIASN",direct neutrophil activation by proteases / zymogen fragments (in words),[4],not stimulatory towards neutrophils
